Results taken from patent publication US20150315241A1, “Antibiotic Peptides” (priority 2007, published 2015).
≈ marks a conversion by molar mass, not a printed value. Read-outs that look alike come from different tables or passages of the source. Where a SMILES comes first, the peptide text is derived from it. Where no end group is shown, it is not given here. [ ]: non-standard residue; d: D form. The star is where a group is joined. Guan = guanidino group added at N-terminus (guanidation), N=C(N)*; Orn(α-tetramethylguanidino) = CN(C)C(=N[C@@H](CCCN)C(=O)*)N(C)C; β3hR = N=C(N)NCCC[C@H](N)CC(=O)O; Agp = N=C(N)NC[C@H](N)C(=O)O; Orn = NCCC[C@H](N)C(=O)O; OPr = CCCO*

Tests used:
E. coli BL 21 AI = test: Growth inhibition assay (MIC); format: cell-based, Escherichia coli; details: 1% TSB, 37° C., 20 hrs
Experimental: (§1) The minimal inhibition concentrations (MIC) of the apidaecin-derived peptides and peptide-derivatives were determined by a growth inhibition assay using a serial peptide dilution in sterilized round-bottom 96-well plates (polystyrene, U-bottom, Greiner Bio-One GmbH) with a final volume of 100 μL per well. The bacteria, e.g., E. coli BL21 A1, were grown in nutrient broth (NB, Carl Roth GmbH+Co. KG, Karlsruhe, Germany) at 37° C. over night. To each well of the 96-well plate, 50 μL of the overnight culture adjusted to 5×10^6 CFU/mL in 1% TSB were added. Lyophilized peptides and peptidomimetics were dissolved in 1% TSB (tryptic soy broth) or water to give a final concentration of 250 μg/mL. Fifty μL of the peptide or peptidomimetics solution were added to the first well of a row on the plate and mixed. Fifty μL of the first well containing the peptide solution were transferred to the second well, mixed and again 50 μL transferred to the next well and so on. Thereby, a two-fold dilution series was obtained starting at 250 μg/mL in the first well down to 120 ng/mL in the 12th well of a row giving a final peptide or peptidomimetics concentration from 125 μg/mL (well 1) to 60 ng/mL (well 12). Plates were incubated at 37° C. for 20 hrs. The absorbance was measured at 595 nm using a TECAN micro plate spectrophotometer (Tecan, Germany). All peptides and peptidomimetics were measured in triplicates. Sterilized water was used as a negative control.
(§2) The bacteria strains were tested: • Eschericha coli 1103, 10233, BL 21 AI, DC 2, • Klebsiella pneumoniae 681, • Micrococcus luteus ATCC 10240, • Mycobacterium vaccae • Bactillus subtillis 347.

M. luteus ATCC 10240 = format: cell-based, Micrococcus luteus
Experimental: as §1, §2

B. subtilis 347 = format: cell-based, Bactillus subtillis; details: 1% TSB, 37° C., 20 hrs
Experimental: as §1, §2

E. coli 1103 = format: cell-based, Escherichia coli; details: 1% TSB, 37° C., 20 hrs
Experimental: as §1, §2

K. pneumonia 681 = format: cell-based, Klebsiella pneumoniae; details: 1% TSB, 37° C., 20 hrs
Experimental: as §1, §2

E. coli 45849 = test: Growth inhibition assay (MIC); format: cell-based, Escherichia coli; details: multidrug resistant strain; 1% TSB, 37° C., 20 hrs
Experimental: as §1
(§3) The following multidrug resistant bacteria strains were tested: • Eschericha coli 45849 and D31, • Klebsiella pneumoniae 123132 and K6, • Salmonella typhi S5 and Salmonella enterica subsp. enterica serovar Typhimurium (ATCC 700408), • Rhizobium radiobacter (ATCC 15955 deposited as Agrobacterium tumefaciens).

S. typhi S5 = format: cell-based, Salmonella typhi
Experimental: as §1, §3

E. coli D31 = format: cell-based, Escherichia coli
Experimental: as §1, §3

K. Pneumonia 123132 = test: Growth inhibition assay (MIC); format: cell-based, Klebsiella pneumoniae; details: multidrug resistant strain; 1% TSB, 37° C., 20 hrs
Experimental: as §1, §3

[1] = system: K. Pneumonia K6, ATCC 700603; test: Growth inhibition assay (MIC); format: cell-based, Klebsiella pneumoniae; details: multidrug resistant strain; 1% TSB, 37° C., 20 hrs
Experimental: as §1, §3

[2] = system: S. enterica subsp. Enterica serovar. typhi G10215 ATCC 700408; format: cell-based, Salmonella enterica
Experimental: as §1, §3

[3] = multidrug resistant strain, 1% TSB, 37° C., 20 hrs

## 86 ([Orn]NNRPVYIPRPRPPHPRPIRV-NH2) [compound 86]
E. coli BL 21 AI
  MIC E. coli BL 21 AI: 3.91 µg/mL
M. luteus ATCC 10240; 1% TSB, 37° C., 20 hrs
  MIC M. luteus ATCC 10240: 0.98 µg/mL
B. subtilis 347
  MIC B. subtilis 347: 62.5 µg/mL

## 146 (Guan-[Orn]NNRPVYIPRPRPPHP[Agp]L-NH2) [compound 146]
E. coli BL 21 AI
  MIC E. coli BL 21 AI: 32 µg/mL
M. luteus ATCC 10240; 1% TSB, 37° C., 20 hrs
  MIC M. luteus ATCC 10240: 4 µg/mL
E. coli 1103
  MIC E. coli 1103: 64 µg/mL
K. pneumonia 681
  MIC K. pneumonia 681: 32 µg/mL
B. subtilis 347
  MIC B. subtilis 347: 125 µg/mL

## 147 (Guan-[Orn]NNRPVYIPRPRPPHPRL-OPr) [compound 147]
E. coli BL 21 AI
  MIC E. coli BL 21 AI: 4 µg/mL
M. luteus ATCC 10240; 1% TSB, 37° C., 20 hrs
  MIC M. luteus ATCC 10240: 16 µg/mL
E. coli 1103
  MIC E. coli 1103: 16 µg/mL
K. pneumonia 681
  MIC K. pneumonia 681: 8 µg/mL
B. subtilis 347
  MIC B. subtilis 347: 64 µg/mL

## 159 (GNNRPVYIPRPRPPHPRL) [compound 159]
E. coli 45849
  MIC E. coli 45849: 1 µg/mL
S. typhi S5; [3]
  MIC S. typhi S5: 0.25 µg/mL
E. coli D31; [3]
  MIC E. coli D31: 1 µg/mL
K. Pneumonia 123132
  MIC K. Pneumonia 123132: 4 µg/mL
[1]
  MIC K. Pneumonia K6, ATCC 700603: 4 µg/mL
[2]; [3]
  MIC S. enterica subsp. Enterica serovar. typhi G10215 ATCC 700408: 0.25 µg/mL

## CC[C@H](C)[C@H](NC(=O)[C@H](CCCNC(=N)N)NC(=O)[C@@H]1CCCN1C(=O)[C@H](Cc1c[nH]cn1)NC(=O)[C@@H]1CCCN1C(=O)[C@@H]1CCCN1C(=O)[C@H](CCCNC(=N)N)NC(=O)[C@@H]1CCCN1C(=O)[C@H](CCCNC(=N)N)NC(=O)[C@@H]1CCCN1C(=O)[C@@H](NC(=O)[C@H](Cc1ccc(O)cc1)NC(=O)[C@@H](NC(=O)[C@@H]1CCCN1C(=O)[C@H](CCCNC(=N)N)NC(=O)[C@H](CC(N)=O)NC(=O)[C@H](CC(N)=O)NC(=O)[C@@H](N)CCCN)C(C)C)[C@@H](C)CC)C(N)=O [compound 16] (H-[Orn]NNRPVYIPRPRPPHPRI-NH2)
E. coli D31; D31, 20 h
  MIC E. coli D31: 128 µg/mL (≈ 58.4 µM)
[1]
  MIC K. Pneumonia K6, ATCC 700603: 32 µg/mL (≈ 14.6 µM)
[2]; ATCC 700408, 20 h
  MIC S. enterica subsp. Enterica serovar. typhi G10215 ATCC 700408: 2 µg/mL (≈ 0.912 µM)
E. coli BL 21 AI
  MIC E. coli BL 21 AI: 0.98 µg/mL (≈ 0.447 µM)
M. luteus ATCC 10240; ATCC 10240, 20 h
  MIC M. luteus ATCC 10240: 3.91 µg/mL (≈ 1.78 µM)

## CC[C@H](C)[C@H](NC(=O)[C@H](Cc1ccc(O)cc1)NC(=O)[C@@H](NC(=O)[C@@H]1CCCN1C(=O)[C@H](CCCNC(=N)N)NC(=O)[C@H](CC(N)=O)NC(=O)[C@H](CC(N)=O)NC(=O)[C@H](CCCN)NC(C)=O)C(C)C)C(=O)N1CCC[C@H]1C(=O)N[C@@H](CCC(N)=O)C(=O)N1CCC[C@H]1C(=O)N[C@@H](CCCNC(=N)N)C(=O)N1CCC[C@H]1C(=O)N1CCC[C@H]1C(=O)N[C@@H](Cc1c[nH]cn1)C(=O)N1CCC[C@H]1C(=O)N[C@@H](CCCNC(=N)N)C(=O)N[C@@H](CC(C)C)C(=O)OC [compound 50] (Ac-[Orn]NNRPVYIPQPRPPHPRL-OMe)
E. coli D31; D31, 20 h
  MIC E. coli D31: >128 µg/mL
[1]
  MIC K. Pneumonia K6, ATCC 700603: >128 µg/mL
[2]; ATCC 700408, 20 h
  MIC S. enterica subsp. Enterica serovar. typhi G10215 ATCC 700408: 32 µg/mL (≈ 14.4 µM)

## CC[C@H](C)[C@H](NC(=O)[C@H](Cc1ccc(O)cc1)NC(=O)[C@@H](NC(=O)[C@@H]1CCCN1C(=O)[C@H](CCCNC(=N)N)NC(=O)[C@H](CC(N)=O)NC(=O)[C@H](CC(N)=O)NC(=O)[C@H](CCCN)N=C(N(C)C)N(C)C)C(C)C)C(=O)N1CCC[C@H]1C(=O)N[C@@H](CCC(N)=O)C(=O)N1CCC[C@H]1C(=O)N[C@@H](CCCNC(=N)N)C(=O)N1CCC[C@H]1C(=O)N1CCC[C@H]1C(=O)N[C@@H](Cc1c[nH]cn1)C(=O)N1CCC[C@H]1C(=O)N[C@@H](CCCNC(=N)N)C(=O)N[C@@H](CC(C)C)C(N)=O [compound 120] ({Orn(α-tetramethylguanidino)}-NNRPVYIPQPRPPHPRL-NH2; N-terminus and C-terminus assumed)
S. typhi S5; S5, 20 h
  MIC S. typhi S5: 0.125 µg/mL (≈ 0.0552 µM)
E. coli D31; D31, 20 h
  MIC E. coli D31: 0.5 µg/mL (≈ 0.221 µM)
[2]; ATCC 700408, 20 h
  MIC S. enterica subsp. Enterica serovar. typhi G10215 ATCC 700408: 0.125 µg/mL (≈ 0.0552 µM)

## CC[C@H](C)[C@H](NC(=O)[C@H](Cc1ccc(O)cc1)NC(=O)[C@@H](NC(=O)[C@@H]1CCCN1C(=O)[C@H](CCCNC(=N)N)NC(=O)[C@H](CC(N)=O)NC(=O)[C@H](CC(N)=O)NC(=O)[C@@H](N)CCCN)C(C)C)C(=O)N1CCC[C@H]1C(=O)N[C@@H](CCC(N)=O)C(=O)N1CCC[C@H]1C(=O)N[C@@H](CCCNC(=N)N)C(=O)N1CCC[C@H]1C(=O)N1CCC[C@H]1C(=O)N[C@@H](Cc1c[nH]cn1)C(=O)N1CCC[C@H]1C(=O)N[C@@H](CCCNC(=N)N)CC(=O)N[C@@H](CC(C)C)C(N)=O [compound 121] (H-[Orn]NNRPVYIPQPRPPHP[β3hR]L-NH2)
E. coli 45849
  MIC E. coli 45849: 128 µg/mL (≈ 58.8 µM)
E. coli D31; D31, 20 h
  MIC E. coli D31: 16 µg/mL (≈ 7.34 µM)
K. Pneumonia 123132
  MIC K. Pneumonia 123132: 128 µg/mL (≈ 58.8 µM)
[1]
  MIC K. Pneumonia K6, ATCC 700603: >128 µg/mL
